Where two headings read alike, the source gives them in different places.
Columns and labels:
Assay in all cases: SelectScreen Kinase Profiling, single point inhibition and IC50 for off-target kinases
Assay type in all cases: biochemical
[1] = target: off-target kinases (Homo sapiens, UniProt Q13627); conditions: DYRK1A, ZLYTE, ATP Km app
[2] = target: off-target kinases (Homo sapiens, UniProt P22607, G697C); conditions: FGFR3 G697C (mutant), LanthaScreen Binding
[3] = target: T1, off-target kinases (Homo sapiens, UniProt Q7L7X3); conditions: TAOK1, LanthaScreen Binding
T1 sequence (Q7L7X3 1-1001): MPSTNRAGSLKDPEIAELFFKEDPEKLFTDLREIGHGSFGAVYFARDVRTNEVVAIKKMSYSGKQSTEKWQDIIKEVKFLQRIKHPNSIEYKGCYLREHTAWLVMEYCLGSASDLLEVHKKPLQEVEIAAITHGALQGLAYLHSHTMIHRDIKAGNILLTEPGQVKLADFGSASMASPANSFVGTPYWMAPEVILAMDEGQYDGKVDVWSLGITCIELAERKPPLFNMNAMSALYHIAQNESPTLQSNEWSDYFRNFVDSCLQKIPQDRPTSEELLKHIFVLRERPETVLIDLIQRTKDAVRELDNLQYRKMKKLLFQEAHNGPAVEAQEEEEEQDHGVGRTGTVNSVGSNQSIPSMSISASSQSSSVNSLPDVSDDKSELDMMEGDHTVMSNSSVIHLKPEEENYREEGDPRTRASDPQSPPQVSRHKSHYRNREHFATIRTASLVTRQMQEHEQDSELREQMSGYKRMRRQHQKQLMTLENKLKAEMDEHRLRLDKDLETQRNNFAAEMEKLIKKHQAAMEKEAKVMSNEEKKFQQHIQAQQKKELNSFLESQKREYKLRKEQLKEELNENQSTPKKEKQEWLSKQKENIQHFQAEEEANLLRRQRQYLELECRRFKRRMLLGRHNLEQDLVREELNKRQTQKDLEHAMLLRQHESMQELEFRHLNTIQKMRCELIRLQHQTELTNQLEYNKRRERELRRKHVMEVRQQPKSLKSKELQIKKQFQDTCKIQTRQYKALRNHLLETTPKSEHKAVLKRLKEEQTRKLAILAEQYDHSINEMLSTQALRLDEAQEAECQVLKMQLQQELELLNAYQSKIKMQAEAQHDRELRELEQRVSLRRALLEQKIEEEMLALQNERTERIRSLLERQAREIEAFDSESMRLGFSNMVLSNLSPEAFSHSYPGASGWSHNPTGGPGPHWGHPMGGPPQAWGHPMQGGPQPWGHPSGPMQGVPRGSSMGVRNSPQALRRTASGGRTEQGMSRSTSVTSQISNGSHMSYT

[4] = target: off-target kinases (Homo sapiens, UniProt P16234, D842V); conditions: PDGFRA D842V, ATP Km app, ZLYTE
[5] = target: off-target kinases (Homo sapiens, UniProt Q13177); conditions: PAK2 (PAK65), ZLYTE, ATP Km app
[6] = target: off-target kinases (Homo sapiens, UniProt P51617); conditions: IRAK1, ATP Km app, Adapta
[7] = target: off-target kinases (Homo sapiens, UniProt Q07912); conditions: TNK2 (ACK), LanthaScreen Binding
off-target kinases (Homo sapiens, UniProt Q07912), sequence (Q07912 whole entry): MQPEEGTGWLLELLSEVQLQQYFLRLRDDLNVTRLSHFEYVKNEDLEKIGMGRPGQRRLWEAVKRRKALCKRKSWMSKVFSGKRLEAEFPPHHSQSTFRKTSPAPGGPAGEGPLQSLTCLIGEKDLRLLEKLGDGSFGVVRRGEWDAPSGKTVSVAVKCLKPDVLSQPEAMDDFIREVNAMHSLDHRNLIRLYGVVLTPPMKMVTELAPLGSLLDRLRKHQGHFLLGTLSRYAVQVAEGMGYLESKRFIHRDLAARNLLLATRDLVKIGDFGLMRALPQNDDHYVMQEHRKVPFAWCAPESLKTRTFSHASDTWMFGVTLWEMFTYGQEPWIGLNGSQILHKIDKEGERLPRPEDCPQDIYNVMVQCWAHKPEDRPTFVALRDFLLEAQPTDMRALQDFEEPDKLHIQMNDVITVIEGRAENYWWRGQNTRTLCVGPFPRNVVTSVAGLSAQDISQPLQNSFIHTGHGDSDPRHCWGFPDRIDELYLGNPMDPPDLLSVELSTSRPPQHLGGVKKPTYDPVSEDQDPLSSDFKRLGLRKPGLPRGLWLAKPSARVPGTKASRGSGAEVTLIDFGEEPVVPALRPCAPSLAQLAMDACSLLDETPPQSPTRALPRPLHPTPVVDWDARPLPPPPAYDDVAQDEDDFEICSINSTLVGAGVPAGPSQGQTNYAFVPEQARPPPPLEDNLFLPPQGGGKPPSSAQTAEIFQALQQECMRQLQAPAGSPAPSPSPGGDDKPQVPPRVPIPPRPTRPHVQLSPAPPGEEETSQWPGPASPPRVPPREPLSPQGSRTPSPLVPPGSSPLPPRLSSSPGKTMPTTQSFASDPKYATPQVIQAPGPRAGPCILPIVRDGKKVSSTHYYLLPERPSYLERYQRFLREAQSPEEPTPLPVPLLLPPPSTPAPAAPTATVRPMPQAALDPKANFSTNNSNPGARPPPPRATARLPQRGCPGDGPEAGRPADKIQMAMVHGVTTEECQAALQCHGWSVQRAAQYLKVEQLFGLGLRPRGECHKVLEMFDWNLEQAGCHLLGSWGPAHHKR

off-target kinases (Homo sapiens, UniProt P22607, G697C), sequence (P22607 23-806 G697C): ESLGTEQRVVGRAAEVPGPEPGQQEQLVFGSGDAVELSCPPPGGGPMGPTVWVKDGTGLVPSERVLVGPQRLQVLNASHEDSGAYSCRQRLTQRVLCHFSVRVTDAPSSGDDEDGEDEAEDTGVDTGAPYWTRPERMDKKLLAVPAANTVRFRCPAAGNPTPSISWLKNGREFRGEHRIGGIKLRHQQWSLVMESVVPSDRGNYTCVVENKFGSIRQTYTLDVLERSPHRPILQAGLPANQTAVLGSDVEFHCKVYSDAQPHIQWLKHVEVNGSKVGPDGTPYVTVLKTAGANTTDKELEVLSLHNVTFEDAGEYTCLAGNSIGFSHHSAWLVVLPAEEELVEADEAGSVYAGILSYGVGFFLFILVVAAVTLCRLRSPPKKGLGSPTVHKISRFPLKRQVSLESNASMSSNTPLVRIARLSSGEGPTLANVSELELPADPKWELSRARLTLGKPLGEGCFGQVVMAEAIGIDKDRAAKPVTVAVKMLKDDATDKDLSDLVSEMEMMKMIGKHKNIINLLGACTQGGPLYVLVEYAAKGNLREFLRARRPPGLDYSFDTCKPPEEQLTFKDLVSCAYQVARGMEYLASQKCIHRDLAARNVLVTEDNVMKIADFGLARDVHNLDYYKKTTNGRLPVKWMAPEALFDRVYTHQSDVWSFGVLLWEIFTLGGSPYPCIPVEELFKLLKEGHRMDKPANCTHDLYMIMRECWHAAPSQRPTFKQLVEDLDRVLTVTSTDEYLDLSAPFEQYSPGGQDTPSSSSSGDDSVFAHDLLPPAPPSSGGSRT
off-target kinases (Homo sapiens, UniProt P16234, D842V), sequence (P16234 24-1089 D842V): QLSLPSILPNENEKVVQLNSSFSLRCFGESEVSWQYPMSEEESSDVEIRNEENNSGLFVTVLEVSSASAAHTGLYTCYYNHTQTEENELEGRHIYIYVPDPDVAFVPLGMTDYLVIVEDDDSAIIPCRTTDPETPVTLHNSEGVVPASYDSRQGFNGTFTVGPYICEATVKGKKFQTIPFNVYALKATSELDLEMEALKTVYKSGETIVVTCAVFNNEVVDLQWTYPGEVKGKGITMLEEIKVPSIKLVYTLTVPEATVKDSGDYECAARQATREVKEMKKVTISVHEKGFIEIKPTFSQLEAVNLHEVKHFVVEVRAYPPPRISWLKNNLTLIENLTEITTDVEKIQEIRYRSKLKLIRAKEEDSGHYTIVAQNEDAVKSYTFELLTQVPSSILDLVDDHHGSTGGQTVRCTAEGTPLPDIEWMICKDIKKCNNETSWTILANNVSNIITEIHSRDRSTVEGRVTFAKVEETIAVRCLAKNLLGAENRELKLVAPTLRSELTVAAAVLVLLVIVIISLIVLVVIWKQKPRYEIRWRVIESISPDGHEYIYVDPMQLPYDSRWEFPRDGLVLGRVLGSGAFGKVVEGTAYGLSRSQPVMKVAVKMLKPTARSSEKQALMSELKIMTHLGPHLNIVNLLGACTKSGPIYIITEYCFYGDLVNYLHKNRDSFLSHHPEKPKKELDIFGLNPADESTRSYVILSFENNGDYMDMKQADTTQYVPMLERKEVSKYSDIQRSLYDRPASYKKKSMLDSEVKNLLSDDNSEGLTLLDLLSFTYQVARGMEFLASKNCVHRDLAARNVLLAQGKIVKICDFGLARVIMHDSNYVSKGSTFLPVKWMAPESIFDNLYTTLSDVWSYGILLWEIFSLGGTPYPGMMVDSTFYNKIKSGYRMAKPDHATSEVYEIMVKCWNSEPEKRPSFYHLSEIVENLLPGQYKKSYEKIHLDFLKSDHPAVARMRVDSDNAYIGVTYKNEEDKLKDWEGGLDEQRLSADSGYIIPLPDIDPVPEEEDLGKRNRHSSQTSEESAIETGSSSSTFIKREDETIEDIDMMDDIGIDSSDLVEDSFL
off-target kinases (Homo sapiens, UniProt P51617), sequence (P51617 whole entry): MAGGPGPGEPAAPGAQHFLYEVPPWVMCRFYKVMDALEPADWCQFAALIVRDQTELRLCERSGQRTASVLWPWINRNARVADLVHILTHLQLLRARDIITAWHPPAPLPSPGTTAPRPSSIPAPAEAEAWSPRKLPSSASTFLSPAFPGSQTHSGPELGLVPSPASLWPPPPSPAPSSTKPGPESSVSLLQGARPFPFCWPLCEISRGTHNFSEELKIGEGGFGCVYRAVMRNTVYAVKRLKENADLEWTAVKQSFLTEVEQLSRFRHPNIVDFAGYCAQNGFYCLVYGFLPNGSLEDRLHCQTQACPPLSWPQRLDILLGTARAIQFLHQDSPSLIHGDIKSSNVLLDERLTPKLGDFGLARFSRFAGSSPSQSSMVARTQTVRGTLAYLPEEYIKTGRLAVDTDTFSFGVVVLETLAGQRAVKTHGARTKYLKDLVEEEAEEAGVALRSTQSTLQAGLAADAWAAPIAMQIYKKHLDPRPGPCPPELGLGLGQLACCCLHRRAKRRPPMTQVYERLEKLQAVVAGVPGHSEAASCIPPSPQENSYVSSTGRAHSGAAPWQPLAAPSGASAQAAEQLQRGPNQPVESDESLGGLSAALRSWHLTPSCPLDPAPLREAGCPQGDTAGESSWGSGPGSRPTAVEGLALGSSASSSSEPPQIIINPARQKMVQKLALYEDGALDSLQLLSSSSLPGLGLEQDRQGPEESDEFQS
off-target kinases (Homo sapiens, UniProt Q13177), sequence (Q13177 whole entry): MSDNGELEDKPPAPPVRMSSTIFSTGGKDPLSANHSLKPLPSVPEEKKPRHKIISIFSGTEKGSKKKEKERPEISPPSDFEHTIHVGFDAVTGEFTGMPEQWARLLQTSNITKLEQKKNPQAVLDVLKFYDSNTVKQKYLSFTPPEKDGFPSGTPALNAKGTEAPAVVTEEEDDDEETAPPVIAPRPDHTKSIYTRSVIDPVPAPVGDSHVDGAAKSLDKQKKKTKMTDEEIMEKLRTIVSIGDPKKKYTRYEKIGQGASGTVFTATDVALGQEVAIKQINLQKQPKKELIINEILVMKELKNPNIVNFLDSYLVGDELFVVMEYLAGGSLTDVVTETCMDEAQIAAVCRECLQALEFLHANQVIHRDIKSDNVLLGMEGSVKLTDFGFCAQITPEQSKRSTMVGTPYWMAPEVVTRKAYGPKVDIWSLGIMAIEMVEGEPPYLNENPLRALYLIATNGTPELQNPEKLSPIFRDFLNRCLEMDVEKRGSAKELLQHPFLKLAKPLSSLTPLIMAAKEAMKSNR

Q: With `N#Cc1cc(-c2ncnc(Nc3ccc(N4CCN(C5COC5)CC4)cc3)n2)ccc1OC1CCOCC1` [Compound 1, 5-(4-((4-(4-(oxetan-3-yl)piperazin-1-yl)phenyl)amino)-1,3,5-triazin-2-yl)-2-((tetrahydro-2H-pyran-4-yl)oxy)benzonitrile] as the compound, how does the inhibition ([1]; read-out: % Inhibition 1) read?
A: 30%

Q: What about the inhibition ([1]; read-out: % Inhibition 2) of the same compound?
A: 27%

Q: What about the inhibition ([1]; read-out: % Inhibition Avg) of the same compound?
A: 28%

Q: What about the inhibition ([2]; read-out: % Inhibition 1) of the same compound?
A: 13%

Q: And the inhibition ([2]; read-out: % Inhibition 2)?
A: 4%

Q: And the inhibition ([2]; read-out: % Inhibition Avg)?
A: 8%

Q: And the inhibition ([3]; read-out: % Inhibition 1)?
A: 45%

Q: And the inhibition ([3]; read-out: % Inhibition 2)?
A: 43%

Q: And the inhibition ([3]; read-out: % Inhibition Avg)?
A: 44%

Q: What about the inhibition ([4]; read-out: % Inhibition 1) of the same compound?
A: 77%

Q: And the inhibition ([4]; read-out: % Inhibition 2)?
A: 73%

Q: What about the inhibition ([4]; read-out: % Inhibition Avg) of the same compound?
A: 75%

Q: What about the inhibition ([5]; read-out: % Inhibition 1) of the same compound?
A: 6%

Q: And the inhibition ([5]; read-out: % Inhibition 2)?
A: -1%

Q: What about the inhibition ([5]; read-out: % Inhibition Avg) of the same compound?
A: 3%

Q: What about the inhibition ([6]; read-out: % Inhibition 1) of the same compound?
A: 94%

Q: What about the inhibition ([6]; read-out: % Inhibition 2) of the same compound?
A: 96%

Q: And the inhibition ([6]; read-out: % Inhibition Avg)?
A: 95%

Q: What about the inhibition ([7]; read-out: % Inhibition 1) of the same compound?
A: 25%

Q: What about the inhibition ([7]; read-out: % Inhibition 2) of the same compound?
A: 26%

Q: What about the inhibition ([7]; read-out: % Inhibition Avg) of the same compound?
A: 25%
